Experiment: rectal (body) temperature of mice measured with medicinal electrothermometer TREM-1
Assay type: in vivo, mice of the BALB line
Description: In all cases tests were carried out on mice of the BALB line of 3-4 month age. […] In the case of water-soluble compounds, aqueous solutions of the test compounds were injected intraperitoneally (i.p.), while water-insoluble compounds were introduced orally (p.o.).
Rectal temperature changes (absolute magnitues in ° C.) were measured using a medicinal electrothermometer TREM-1 (Table 1). The rate of oxygen consumption was monitored by measuring concentration of oxygen in a closed testing unit with optic-acoustic gas analyser MN 5130. The data on oxygen consumption are given in percents relative to the starting content of oxygen taken as 100%. (Table 2).
Rectal temperature of mice was followed in dynamics after 5, 15, 30, 60, 120, 180, 240, 300, and 360 minutes (Table 3). […] The same decrease in temperature at 190 mg/kg dosage was reached after 15 minutes; in 1.5 hours it reached 22-25° C. and maintained this level over the next 5 hours, that is 13-17° C. below the initial value. After one day, body temperature was restored to the value of 94-96% of initial.

[1] = i.p., 0 min, mg/kg: cpd 1 190.0, cpd 2 178.0, cpd 5 190.0, cpd 6 160.0
[2] = i.p., 30 min, mg/kg: cpd 1 190.0, cpd 2 178.0, cpd 5 190.0, cpd 6 160.0
[3] = i.p., 60 min, mg/kg: cpd 1 190.0, cpd 2 178.0, cpd 5 190.0, cpd 6 160.0
[4] = i.p., 90 min, mg/kg: cpd 1 190.0, cpd 2 178.0, cpd 6 160.0
[5] = i.p., 120 min, mg/kg: cpd 1 190.0, cpd 2 178.0, cpd 5 190.0, cpd 6 160.0
[6] = i.p., 180 min, mg/kg: cpd 1 190.0, cpd 2 178.0, cpd 5 190.0, cpd 6 160.0
[7] = i.p., 240 min, mg/kg: cpd 1 190.0, cpd 2 178.0, cpd 5 190.0, cpd 6 160.0
[8] = i.p., 300 min, mg/kg: cpd 1 190.0, cpd 2 178.0, cpd 6 160.0
[9] = p.o., 0 min, mg/kg: cpd 4 437.0, cpd 5 328.0, cpd 6 407.0, cpd 8 435.0
[10] = p.o., 30 min, mg/kg: cpd 4 437.0, cpd 5 328.0, cpd 6 407.0, cpd 8 435.0
[11] = p.o., 60 min, mg/kg: cpd 4 437.0, cpd 5 328.0, cpd 6 407.0, cpd 8 435.0
[12] = p.o., 90 min, mg/kg: cpd 4 437.0, cpd 5 328.0, cpd 6 407.0
[13] = p.o., 120 min, mg/kg: cpd 4 437.0, cpd 5 328.0, cpd 7 407.0, cpd 8 435.0
[14] = p.o., 180 min, mg/kg: cpd 4 437.0, cpd 7 407.0, cpd 8 435.0
[15] = p.o., 240 min, mg/kg: cpd 4 437.0, cpd 7 407.0, cpd 8 435.0
[16] = p.o., 300 min, mg/kg: cpd 7 407.0, cpd 8 435.0

Row | Structure (SMILES) | body temperature [1] [°C] | body temperature [2] [°C] | body temperature [3] [°C] | body temperature [4] [°C] | body temperature [5] [°C] | body temperature [6] [°C] | body temperature [7] [°C] | body temperature [8] [°C] | body temperature [9] [°C] | body temperature [10] [°C] | body temperature [11] [°C] | body temperature [12] [°C] | body temperature [13] [°C] | body temperature [14] [°C] | body temperature [15] [°C] | body temperature [16] [°C]
1 | CS(=O)(=O)O.c1ccc(C2=NN=C(N3CCOCC3)SC2)cc1 [Compound 2, 2-Morpholino-5-phenyl-6H-1,3,4-thiadiazine, mesilate] | 38.0 | 30.1 | 26.7 | 25.5 | 26.9 | 31.0 | 35.4 | 35.4 |  |  |  |  |  |  |  | 
2 | Br.Brc1cccc(C2=NN=C(N3CCOCC3)SC2)c1 [Compound 4, 2-Morpholino-5-(3-bromophenyl)-6H-1,3,4-thiadiazine, hydrobromide] |  |  |  |  |  |  |  |  | 38.0 | 35.9 | 33.8 | 33.5 | 32.9 | 33.1 | 32.8 | 
3 | Br.c1ccc(C2=NN=C(N3CCSCC3)SC2)cc1 [Compound 5, 2-Thiomorpholino-5-phenyl-6H-1,3,4-thiadiazine, hydrobromide] | 38.0 | 28.0 | 27.1 |  | 25.0 | 23.3 | 23.6 |  | 38.0 | 27.5 | 26.0 | 24.0 | 24.0 |  |  | 
4 | CS(=O)(=O)O.c1ccc(C2=NN=C(N3CCSCC3)SC2)cc1 [Compound 6, 2-Thiomorpholino-5-phenyl-6H-1,3,4-thiadiazine, mesilate] | 37.9 | 30.6 | 26.9 | 26.3 | 25.8 | 27.4 | 28.9 | 30.9 | 37.7 | 34.0 | 33.4 | 32.6 |  |  |  | 
5 | Br.CCOc1ccc(C2=NN=C(N3CCSCC3)SC2)cc1 [Compound 7, 2-Thiomorpholino-5-(4-ethoxyphenyl)-6H-1,3,4-thiadiazine, hydrobromide] |  |  |  |  |  |  |  |  |  |  |  |  | 33.5 | 32.3 | 30.6 | 30.6
6 | Br.Brc1cccc(C2=NN=C(N3CCSCC3)SC2)c1 [Compound 8, 2-Thiomorpholino-5-(3-bromophenyl)-6H-1,3,4-thiadiazine, hydrobromide] |  |  |  |  |  |  |  |  | 38.1 | 35.2 | 35.0 |  | 33.4 | 33.5 | 32.3 | 33.9
